Here are results for 2 compounds from publication PMC6273429, “Pharmacokinetics of Tyrosol Metabolites in Rats” (Molecules, 2016).

Like-named read-outs stand apart in the source and are kept apart here.

Data set [1] can be described thus: Pharmacokinetics of tyrosol metabolites in rat plasma after single oral dose of tyrosol (HPLC). Particulars: for Cmax / Tmax / half-life / AUC(0-t): male, Sprague-Dawley; for AUC(0-t): n = 3, read-out: AUC (0-8h). Type of data set: in vivo, Sprague-Dawley rats. As for the experimental part: To understand the time-dependent changes in the concentration of tyrosol metabolites, the level of metabolites in plasma samples was measured by HPLC at different time points (15, 30, 60, 120, and 240 min) after tyrosol administration. […] The inter- and intra-day precision and accuracy were determined by replicate analysis of the samples at two concentrations of each metabolite: 0.1 and 2 mg/mL tyrosol-4-sulfate. The stability of the metabolites was determined at room temperature over 24 h.
(§1) Male Sprague-Dawley rats with average weights of 250 g were purchased from Orient Bio Inc. (Seoul, Korea) and acclimatized to laboratory conditions comprising a 12:12 h light-dark cycle, temperature of 24 °C, and humidity of 55% for one week. Animals were fed AIN-93G diet and provided water ad libitum during acclimation. On the dosing day, the rats were gavaged with tyrosol (100 or 200 mg/kg) as a suspension in polyethylene glycol. After the oral administration of a single dose of tyrosol to rats, blood samples were collected from the eye of the rats at different time points after dosing (0.25, 0.5, 1, 2, 4, 8, and 16 h). Urine samples were collected just before administration of tyrosol and during 0–1, 1–2, 2–4, 4–8, and 8–24 h after dosing. Liver, lung, heart, spleen, kidney, and epididymal adipose tissues were excised as quickly as possible and stored frozen at −80 °C until use. Animal studies were conducted in accordance with our institutional and national guidelines, and all experimental procedures were approved by the Korea Food Research Institute Animal Care and Use Committee (KFRI-IACUC, #2015-0016).
To 300 µL of serum, 700 µL of methanol was added, followed by vortex mixing for 5 min. After centrifugation at 13,000 rpm for 15 min, the supernatant was collected and injected into the HPLC or LC-MS system.
(§2) HPLC analyses were performed on a Jasco high-performance liquid chromatography (HPLC) system (Jasco Corporation, Tokyo, Japan) equipped with a Jasco UV-2089 plus quaternary gradient pump, Jasco AS-2057 plus intelligent sample injector, Jasco UV-2075 UV/Vis detector, and Borwin chromatography software version 1.5. Separation was achieved using an XTerra RP18 column (4.6 × 250 mm, 5 µM, Waters) and a guard column. Elution was performed at a flow rate of 1.0 mL/min at 30 °C. The solvents for eluent were 1% (v/v) phosphoric acid (solvent A) and acetonitrile (solvent B). The solvent gradient changed according to the following conditions: 100% A to 95% A over 10 min, to 85% A over 10 min, to 70% A over 10 min, to 65% A over 5 min, to 90% A over 5 min, and to 100% A over 5 min, followed by 5 min of maintenance. The UV detector was set at a wavelength of 280 nm.
(§3) A non-compartmental pharmacokinetics analysis for each tyrosol metabolite was performed using PK solution software version 2.0 (Summit Research Services, Montrose, CO, USA). Cmax, Tmax, and T1/2 were estimated from the plasma concentration-time curve. The area under the curve (AUC) for the plasma concentration over time was calculated using the trapezoidal rule.

The nature of data set [2]: Pharmacokinetics of tyrosol metabolites in rat urine after single oral dose of tyrosol (HPLC). Type of data set: in vivo, Sprague-Dawley rats. Particulars: for Tmax / half-life: male, Sprague-Dawley; for Tmax: rat, urine, po. As for the experimental part:
Urine samples were collected at 0–1, 1–2, 2–4, 4–8, and 8–24 h after administration of tyrosol.
as §1, §2, §3

Data set [3] is described as follows: Tissue distribution of tyrosol-derived metabolites after oral administration of tyrosol. Type of data set: in vivo, Sprague-Dawley rats. How it is done: To study the tissue distribution of tyrosol metabolites, organs were collected at different time points following oral administration of tyrosol. T4S and M2 were detected in each tissue within 1 h after tyrosol administration (Figure 5A,B). […] These findings indicate that the metabolites are mainly excreted by the kidneys through the liver. Specifically, we propose that the rapid uptake of tyrosol is followed by its sulfation in the liver.
Figure 5 Tissue distribution of tyrosol-4-sulfate (A) and M2 (B). Tissue samples (heart, kidney, spleen, lung, liver, epididymal adipose tissue) were collected at different time intervals post-dosing (0, 0.5, 1, 2, 4, 8, and 16 h) and the concentration of tyrosol-4-sulfate and M2 was measured. Each point represents mean ± SD (n = 3).
as §1
Each tissue was thawed, rinsed with ice-cold saline, blotted dry, weighed, and homogenized (1:1, w/v) in water using homogenizer (MP Fastprep instrument, MP Biomedical, Solon, OH, USA). The homogenates (300 µL) were transferred into clean tubes, methanol (700 µL) was added, and the tubes were vortex-mixed for 5 min. The supernatant was collected after centrifugation at 13,000 rpm for 15 min. The supernatant was evaporated to dryness at room temperature under a stream of nitrogen gas. The residue was resuspended in methanol (100 µL).
as §2

Data set [4] relates to human hepatoma HepG2 cells. More on the design: method as in PMID 16366672. Particulars: cited from earlier work.

On to `O=S(=O)(O)Oc1ccc(CCO)cc1` [T4S, tyrosol-4-sulfate], for which the “time of uptake after oral administration of tyrosol” value in data set [1] is reported as not above 1 h. Besides, the Cmax in data set [1] (tyrosol oral 100 mg/kg b.w.) is 7900 ng/mL; in data set [1] (tyrosol oral 200 mg/kg b.w.) it was 12100 ng/mL. Besides, the Tmax in data set [1] (tyrosol oral 100 mg/kg b.w.) is 10.7 min; in data set [1] (tyrosol oral 200 mg/kg b.w.), 10.6 min; in data set [2] (100 mg/kg, tyrosol oral 100 mg/kg b.w., read-out: Tmax), 2 h; in data set [2] (200 mg/kg, tyrosol oral 200 mg/kg b.w., read-out: Tmax) it was 2.9 h; in data set [2] (200 mg/kg, tyrosol oral 100 and 200 mg/kg, read-out: Tmax in urine (range over doses)), 2 to 2.9 h. Besides, the half-life is 13.8 min in data set [1] (tyrosol oral 100 mg/kg b.w.), 12.1 min in data set [1] (tyrosol oral 200 mg/kg b.w.), 72 min in data set [2] (tyrosol oral 100 mg/kg b.w.) and 72 min in data set [2] (tyrosol oral 200 mg/kg b.w.). Besides, the results for the AUC(0-t) in data set [1] (tyrosol oral 100 mg/kg b.w.) and in data set [1] (tyrosol oral 200 mg/kg b.w.) were 2500 ng·h/mL and 6600 ng·h/mL, respectively. Besides, the “time by which eliminated in urine” value in data set [2] (after oral tyrosol) is reported as not above 12 h. The “time to detection in each tissue” value in data set [3] (rat tissues after oral tyrosol) is not above 1 h. In data set [3] (rat, after oral tyrosol), the “detection in epididymal fat and the lungs” value is recorded as “not detected”. For the same compound, in data set [3] (rat, after oral tyrosol), the “time of elimination from organs and tissues” value is not above 4 h. Also, the “tissues of greatest deposition / highest concentration by tissue weight” value in data set [3] (rat, after oral tyrosol) is “liver, followed by the kidney and spleen”; in data set [3] (rat, after oral tyrosol, listed as tyrosol-4-sulfate), “liver and the kidney”.

For `OCCc1ccc(O)cc1` [Tyrosol], in data set [4], the “detection of sulfated metabolites” value is “no detection” and the “metabolism to glucuronide conjugates” value was “poorly metabolized”.
